According to the NIST ThermoML archive (doi:10.1016/j.jct.2015.02.022):
Where a name gives a salt, the structure may show the parent alone.

What was measured:
[1] = Liquid; for mass density / viscosity: 101.33 kPa; for mass density: Pycnometric method; for vapor or sublimation pressure: Closed cell (Static) method; for viscosity: Capillary tube (Ostwald / Ubbelohde) method
[2] = refractive index (Na D-line) (dimensionless); conditions: 293.15 K; 101.33 kPa; Liquid; Standard Abbe refractometry

CCOC(=O)C(F)(F)F [ethyl trifluoroacetate]
[1]
Conditions	mass density [kg/m3]	vapor or sublimation pressure [kPa]	viscosity [mPa·s]
278.08 K	1218.9	–	–
285.15 K	1205.9	–	–
289.23 K	1197.6	–	–
293.35 K	–	17.93	–
293.45 K	–	–	0.4635
293.68 K	1188.3	–	–
296.02 K	–	–	0.4506
298.3 K	–	22.86	–
298.63 K	–	–	0.4356
298.84 K	1179	–	–
300.75 K	–	25.36	–
301.19 K	–	–	0.4234
303.35 K	–	28.45	–
303.75 K	–	–	0.4107
303.86 K	1168	–	–
305.85 K	–	31.2	–
306.3 K	–	–	0.3986
307.89 K	1160.9	–	–
308.35 K	–	34.13	–
308.85 K	–	–	0.3881
310.85 K	–	38	–
311.33 K	–	–	0.3775
312.65 K	1151.4	–	–
313.35 K	–	42.3	–
313.93 K	–	–	0.3674
315.85 K	–	47.2	–
316.43 K	–	–	0.3581
317.43 K	1142.2	–	–
318.4 K	–	52	–
318.96 K	–	–	0.3497
320.97 K	–	57.2	–
321.63 K	–	–	0.3399
322.5 K	1131.3	–	–
323.45 K	–	63.2	–
324.15 K	–	–	0.3314
326.15 K	–	70.64	–
326.69 K	–	–	0.323
328.75 K	–	77.9	–
329.16 K	–	–	0.3153
331.45 K	–	86.5	–
331.64 K	–	–	0.3075
334.05 K	–	94.15	–
334.32 K	–	–	0.3009
335.25 K	–	99.92	–
335.65 K	–	101.33	–

Conditions	refractive index
[2]	1.3086

CO [methanol]
[1]
Conditions	vapor or sublimation pressure [kPa]	viscosity [mPa·s]
293.35 K	13.54	–
302.45 K	–	0.513
303.35 K	22.05	–
310.85 K	31.07	–
313.5 K	–	0.443
320.97 K	49.45	–
323.55 K	–	0.386
331.45 K	77.05	–
333.85 K	–	0.345
335.95 K	95.83	–
